The values below come from ChEMBL document CHEMBL5131572, “Identification of a Potent, Selective, and Brain-Penetrant Rho Kinase Inhibitor and its Activity in a Mouse Model of Huntington's Disease” (J Med Chem, 2022).

In brackets after ≈: the same amount, converted by molar mass.

Data set [1] deals with T1, Cytochrome P450 1A2 (Homo sapiens, UniProt P05177).
T1 sequence (P05177 whole entry): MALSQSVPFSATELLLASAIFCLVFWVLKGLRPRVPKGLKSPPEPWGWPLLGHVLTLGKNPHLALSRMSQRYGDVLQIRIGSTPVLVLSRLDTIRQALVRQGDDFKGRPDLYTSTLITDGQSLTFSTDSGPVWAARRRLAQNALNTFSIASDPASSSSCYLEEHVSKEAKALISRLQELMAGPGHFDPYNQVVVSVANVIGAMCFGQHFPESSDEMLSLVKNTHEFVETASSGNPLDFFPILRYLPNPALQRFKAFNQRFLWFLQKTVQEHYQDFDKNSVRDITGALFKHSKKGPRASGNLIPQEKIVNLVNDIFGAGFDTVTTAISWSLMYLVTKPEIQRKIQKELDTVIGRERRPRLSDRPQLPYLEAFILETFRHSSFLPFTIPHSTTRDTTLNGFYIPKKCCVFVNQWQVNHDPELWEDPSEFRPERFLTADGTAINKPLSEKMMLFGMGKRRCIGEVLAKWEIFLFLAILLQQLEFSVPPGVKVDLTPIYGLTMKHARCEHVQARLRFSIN
In words: Time dependent inhibition of CYP1A2 in pooled human liver microsomes using […] as substrate preincubated for 30 mins in presence of NADPH followed by substrate addition and measured after 10 mins by LC-MS/MS analysis. The data set is classed as ADME, Microsome.

Data set [2] in a line: Hepatic extraction ratio in C57BL/6 mouse at 2 mg/kg, iv. The data set is classed as ADME, organism-based. To be noted: in vivo, read-out: ERH.
Data set [3] in a line: Metabolic stability in mouse liver microsomes assessed as intrinsic clearance at 1 uM measured upto 40 mins in presence of NADPH by LC-MS/MS analysis. The data set is classed as ADME, Microsome. The settings on record: read-out: CLH. (In general: Microsomes from liver hold many membrane-bound enzymes, among them those of drug oxidation.)
The nature of data set [4]: Inhibition of ROCK in rat A7R5 cells assessed as cofilin serine 3 phosphorylation incubated for 1 hr by ICW assay. The settings on record: A7R5, 1 h.
Data set [5] in a line: Oral bioavailability in C57BL/6 mouse at 10 mg/kg. The data set is classed as ADME, organism-based. The settings on record: in vivo.
Data set [6] has as its target T2, cGMP-dependent protein kinase 1 (Homo sapiens, UniProt Q13976).
T2 sequence (Q13976 whole entry): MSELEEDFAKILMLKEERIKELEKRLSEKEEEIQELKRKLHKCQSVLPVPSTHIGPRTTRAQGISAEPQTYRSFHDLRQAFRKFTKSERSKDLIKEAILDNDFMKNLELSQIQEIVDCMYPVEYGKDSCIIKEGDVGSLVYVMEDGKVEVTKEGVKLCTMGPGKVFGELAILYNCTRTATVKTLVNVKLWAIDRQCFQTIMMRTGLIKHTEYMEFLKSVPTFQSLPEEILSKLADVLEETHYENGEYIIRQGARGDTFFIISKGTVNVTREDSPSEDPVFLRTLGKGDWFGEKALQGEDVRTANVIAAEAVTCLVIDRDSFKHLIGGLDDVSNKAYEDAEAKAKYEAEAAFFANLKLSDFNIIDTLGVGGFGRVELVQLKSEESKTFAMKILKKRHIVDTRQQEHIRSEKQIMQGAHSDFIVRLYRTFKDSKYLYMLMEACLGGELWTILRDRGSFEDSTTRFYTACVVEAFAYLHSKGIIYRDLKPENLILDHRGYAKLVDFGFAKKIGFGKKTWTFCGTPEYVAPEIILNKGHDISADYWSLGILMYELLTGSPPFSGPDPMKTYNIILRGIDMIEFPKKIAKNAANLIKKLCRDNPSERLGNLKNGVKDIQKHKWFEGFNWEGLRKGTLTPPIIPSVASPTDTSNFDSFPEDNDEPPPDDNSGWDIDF
In words: Inhibition of full length recombinant N-terminal GST-tagged human PKG expressed in baculovirus infected Sf9 insect cells using RSK as substrate preincubated for 15 mins followed by substrate addition and measured after 30 mins in presence of ATP by ADP Glo kinase assay. On the technique in general: ADP-Glo turns the ADP formed in a reaction into a luminescent signal.

Data set [7] can be described thus: Ratio of unbound AUC in C57BL/6 mouse brain at 10 mg/kg, po to IC50 for Inhibition of ROCK in rat A7r5 cells. The data set is classed as organism-based. The settings on record: in vivo.
Data set [8] is described as follows: Clearance in C57BL/6 mouse plasma at 2 mg/kg, iv. The class given is ADME, organism-based.
Data set [9] can be described thus: Kinetic solubility of the compound in pH 7.4 PBS buffer incubated for 2 hrs using orbital shaker by LC-UV mass spectrometry. The class given is physicochemical. The settings on record: read-out: Kinetic_solubility.
A short description of data set [10]: Unbound AUC in C57BL/6 mouse plasma at 10 mg/kg, po by LC-MS/MS analysis. The data set is classed as ADME, organism-based. To be noted: in vivo.
Data set [11] can be described thus: Apparent permeability in MDCK-MDR1 cells at 10 uM after 1 hr by LC-MS/MS analysis. The data set is classed as ADME, cell-based, Canis lupus familiaris. The settings on record: dog.
For data set [12], the target named is Rho-associated protein kinase 2 (Homo sapiens, UniProt O75116). Description: Inhibition of recombinant N-terminal GST-tagged human ROCK2 (5 to 554 residues) expressed in baculovirus infected Sf9 cells using S6K as substrate incubated for 30 mins in presence of ATP by ADP Glo kinase assay.
Data set [13] concerns MDR1. Description: in vitro. The settings on record: dog, MDCK-MDR1.
Description: Efflux ratio of apparent permeability across basolateral to apical side to apical to basolateral side in MDCK-MDR1 cells at 10 uM measured after 1 hr by LC-MS/MS analysis
Data set [14] is described as follows: Unbound AUC in C57BL/6 mouse brain at 10 mg/kg, po by LC-MS/MS analysis. The class given is ADME, organism-based. To be noted: in vivo.
Data set [15] has as its system Mus musculus. In words: Antihypertensive activity in CD1 mouse assessed as decrease in body temperature at 10 to 20 mg/kg, po measured after 0.5 to 4 hrs. The class given is functional. The settings on record: dose 10-20 mg/kg, time 0.5-4 hrs.
For data set [16], the system named is Mus musculus. Description: Antihypertensive activity in CD1 mouse assessed as decrease in systolic blood pressure at 10 to 20 mg/kg, po measured after 0.5 to 2 hrs. The data set is classed as functional. To be noted: dose 10-20 mg/kg, time 0.5-2 hrs.
Data set [17] relates to Mus musculus. In words: In vivo inhibition of ROCK in HTT zQ175DN Knock-in mouse assessed as reduction in MYPT1 phosphorylation in striatum at 10 mg/kg, po by MSD assay. The class given is functional, organism-based. To be noted: time 1-8 hrs, TDE = time-dependent effect.
The subject of data set [18] is Mus musculus. Description: In vivo inhibition of ROCK in po dosed HTT zQ175DN Knock-in mouse assessed as reduction in MYPT1 phosphorylation in striatum after 1 hr by MSD assay. The settings on record: dose 1-20 mg/kg, DDE = dose-dependent effect. The class given is functional, organism-based.
The subject of data set [19] is Mus musculus. Description: Antihypertensive activity in CD1 mouse assessed as decrease in mean arterial pressure at 10 to 20 mg/kg, po measured after 0.5 to 2 hrs. The data set is classed as functional. The settings on record: dose 10-20 mg/kg, time 0.5-2 hrs.
In data set [20] the target is LIM domain kinase 2 (Homo sapiens, UniProt P53671). In words: Inhibition of wild-type human full length LIMK2 (M1 to P638 residues) expressed in bacterial expression system by Kinomescan method.
Data set [21] is described as follows: Inhibition of ROCK in human PANC-1 cells assessed as decrease in MYPT1 phosphorylation at T850 residues measured after 1 hr by Western blot analysis. The data set is classed as cell-based. The settings on record: PANC-1, 1 h. A general note: Immunoblotting shows a protein as a band on a membrane.
Data set [22] relates to Mus musculus. In words: Antihypertensive activity in CD1 mouse assessed as decrease in diastolic blood pressure at 10 to 20 mg/kg, po measured after 0.5 to 2 hrs. The settings on record: dose 10-20 mg/kg, time 0.5-2 hrs. The data set is classed as functional.
Data set [23] can be described thus: Inhibition of ROCK in rat A7R5 cells assessed as increase in AKT phosphorylation measured after 30 mins by alphaLISA Surefire multiplex assay. The class given is cell-based. The settings on record: A7R5, 0.5 h.
The subject of data set [24] is Mus musculus. In words: Antihypertensive activity in CD1 mouse assessed as decrease in heart rate pressure at 10 to 20 mg/kg, po measured after 0.5 to 2 hrs. To be noted: dose 10-20 mg/kg, time 0.5-2 hrs.
The target in data set [25] is RAC-alpha serine/threonine-protein kinase (Homo sapiens, UniProt P31749). In words: Inhibition of AKT (unknown origin).
Chain of RAC-alpha serine/threonine-protein kinase (P31749 whole entry): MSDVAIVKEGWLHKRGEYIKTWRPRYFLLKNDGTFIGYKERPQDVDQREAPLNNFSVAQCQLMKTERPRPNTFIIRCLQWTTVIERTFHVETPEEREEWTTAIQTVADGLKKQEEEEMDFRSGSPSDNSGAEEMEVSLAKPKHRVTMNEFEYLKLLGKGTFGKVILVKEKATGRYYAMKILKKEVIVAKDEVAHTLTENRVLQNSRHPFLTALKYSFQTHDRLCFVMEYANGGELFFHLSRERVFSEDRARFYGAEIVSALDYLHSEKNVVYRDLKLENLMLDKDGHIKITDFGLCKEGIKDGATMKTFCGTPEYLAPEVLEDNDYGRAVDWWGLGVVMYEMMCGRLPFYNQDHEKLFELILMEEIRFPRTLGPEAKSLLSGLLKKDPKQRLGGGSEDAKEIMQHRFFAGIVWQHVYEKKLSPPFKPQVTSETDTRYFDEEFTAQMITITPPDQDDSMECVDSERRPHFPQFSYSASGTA

Chain of Rho-associated protein kinase 2 (O75116 whole entry, the tested form may be a part): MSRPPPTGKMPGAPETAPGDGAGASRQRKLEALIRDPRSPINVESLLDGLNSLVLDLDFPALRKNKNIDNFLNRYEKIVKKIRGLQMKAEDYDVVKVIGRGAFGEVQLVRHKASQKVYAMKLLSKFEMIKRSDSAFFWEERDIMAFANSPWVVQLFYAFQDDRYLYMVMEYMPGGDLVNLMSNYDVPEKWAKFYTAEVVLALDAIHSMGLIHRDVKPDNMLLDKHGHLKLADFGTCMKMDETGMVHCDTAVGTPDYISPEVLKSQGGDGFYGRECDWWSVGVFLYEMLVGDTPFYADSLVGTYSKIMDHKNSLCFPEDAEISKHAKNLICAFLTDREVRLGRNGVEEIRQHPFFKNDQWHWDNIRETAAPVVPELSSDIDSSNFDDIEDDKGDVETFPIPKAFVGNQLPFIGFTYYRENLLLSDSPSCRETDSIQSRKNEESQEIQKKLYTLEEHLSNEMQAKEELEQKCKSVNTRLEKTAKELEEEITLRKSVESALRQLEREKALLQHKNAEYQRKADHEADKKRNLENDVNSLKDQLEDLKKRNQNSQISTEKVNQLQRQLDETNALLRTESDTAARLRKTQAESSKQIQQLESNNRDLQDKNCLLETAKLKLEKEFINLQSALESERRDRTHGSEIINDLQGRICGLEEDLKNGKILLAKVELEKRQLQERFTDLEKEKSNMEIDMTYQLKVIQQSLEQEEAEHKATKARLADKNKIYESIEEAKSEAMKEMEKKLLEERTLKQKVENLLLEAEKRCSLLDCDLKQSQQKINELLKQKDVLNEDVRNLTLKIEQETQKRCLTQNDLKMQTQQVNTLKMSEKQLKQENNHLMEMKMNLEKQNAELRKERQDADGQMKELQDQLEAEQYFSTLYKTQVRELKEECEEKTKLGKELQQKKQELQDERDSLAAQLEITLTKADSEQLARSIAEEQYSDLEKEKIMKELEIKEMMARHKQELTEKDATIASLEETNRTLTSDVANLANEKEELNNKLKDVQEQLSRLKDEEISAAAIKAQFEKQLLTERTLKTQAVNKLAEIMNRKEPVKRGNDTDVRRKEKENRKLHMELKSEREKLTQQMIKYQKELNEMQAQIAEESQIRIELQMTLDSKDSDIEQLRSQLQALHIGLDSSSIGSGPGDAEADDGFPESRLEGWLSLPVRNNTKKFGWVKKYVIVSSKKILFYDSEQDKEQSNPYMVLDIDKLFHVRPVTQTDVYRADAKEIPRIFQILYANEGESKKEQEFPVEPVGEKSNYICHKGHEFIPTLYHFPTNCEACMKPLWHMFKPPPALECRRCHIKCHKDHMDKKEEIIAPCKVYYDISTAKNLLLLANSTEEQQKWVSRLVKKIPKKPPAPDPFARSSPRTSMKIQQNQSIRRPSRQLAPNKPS
Chain of LIM domain kinase 2 (P53671 whole entry, the tested form may be a part): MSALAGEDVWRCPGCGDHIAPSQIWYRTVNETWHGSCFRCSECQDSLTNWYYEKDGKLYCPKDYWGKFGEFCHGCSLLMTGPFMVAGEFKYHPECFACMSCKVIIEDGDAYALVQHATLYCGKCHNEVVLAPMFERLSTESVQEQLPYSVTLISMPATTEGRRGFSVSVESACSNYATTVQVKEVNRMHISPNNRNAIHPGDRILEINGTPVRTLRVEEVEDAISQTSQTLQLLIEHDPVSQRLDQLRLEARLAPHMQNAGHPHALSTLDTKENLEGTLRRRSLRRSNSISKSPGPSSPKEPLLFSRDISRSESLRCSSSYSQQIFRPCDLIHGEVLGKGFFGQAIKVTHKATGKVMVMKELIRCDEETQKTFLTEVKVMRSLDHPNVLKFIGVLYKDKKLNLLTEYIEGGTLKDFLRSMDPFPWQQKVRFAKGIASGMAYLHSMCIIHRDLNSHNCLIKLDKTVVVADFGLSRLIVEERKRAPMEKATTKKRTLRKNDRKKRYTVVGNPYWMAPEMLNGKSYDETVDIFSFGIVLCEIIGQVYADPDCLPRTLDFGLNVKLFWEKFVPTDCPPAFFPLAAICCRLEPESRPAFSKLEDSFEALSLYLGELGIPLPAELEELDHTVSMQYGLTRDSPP

For orientation: IC50 means the concentration needed to halve the response being measured. What is called bioavailability is dose-corrected exposure relative to a reference, in per cent. A low value points to poor availability. One may read the clearance as the rate of elimination divided by the concentration. Higher therefore signals a high capacity for elimination. Broadly, the Papp is the rate of passage across a membrane or cell layer, normalised by area and donor concentration. Broadly, the efflux ratio is the permeability from basolateral to apical divided by that in the opposite direction, in the common usage. Consider `COc1cccc([C@@H](C)NC(=O)N2CCN(c3ccnc(F)c3)C[C@H]2C)c1`, for which the IC50 in data set [1] was above 10 µM; in data set [4], 122 nM; in data set [6], 18900 nM; in data set [12], 6 nM. The hepatic extraction ratio in [2] was found to be 0.31. In addition, the CLint scaled at 1 µM in data set [3] came out at 103 mL/min/kg. In [5], the bioavailability was 36%. In addition, the Ratio in data set [7] came out at 0.2. The clearance in data set [8] is 28.3 mL/min/kg. Further, the solubility kinetic at 2 h in [9] is 170 µM (≈ 63.3 µg/mL). Also, the fAUC was 100 nM·kg·h/mg in data set [10] and 30 nM·kg·h/mg in data set [14]. In addition, the Papp at 1 h, 10 µM in [11] was determined as 58.1 ×10⁻⁶ cm/s. Besides, in data set [13], the efflux ratio at 1 h, 10 µM came to 2.8.
In general, EC50 refers to the concentration giving half of the maximal effect. For the compound `COc1cccc([C@@H](C)NC(=O)N2CCN(c3ccncc3F)C[C@H]2C)c1`, the T in data set [15] was 2.5 °C. Besides, the Activity in [16] is 59.5 mmHg; in data set [19], 61 mmHg; in data set [22], 56.4 mmHg; in data set [24], 107 bpm. The inhibition entry in data set [17] is “Tde”; in [18], “Dde”. Besides, the IC50 is 8 nM in data set [4]; 2250 nM in [6]; 25 nM in data set [20]; 14 nM in data set [21]; 3 nM in data set [12]. For the same compound, in data set [23], the EC50 stood at 28 nM.
In the case of `COc1cccc([C@@H](C)NC(=O)c2ccc(-c3ccnc(F)c3)nc2)c1`, the IC50 in data set [4] was determined as 290 nM; in [6], 320 nM; in data set [21], 1870 nM; in data set [25] it was 9.26 µM; in data set [12] it was 26 nM. Besides, in [23], the EC50 was 3210 nM.
